Test results reported in PubChem BioAssay AID2060897 (Molecular Pharmacology Branch, DTP, NCI, 2025).

Tested on: 966289-007-R4-J1-PDC complex spheroid viability
Assay: Anticancer human tumor 966289-007-R4-J1-PDC patient-derived pancreatic adenocarcinoma cell line growth inhibition [RAS]
Details: for IC50: curve of first compound; for viability, T/C: stronger effect = lower value; active = viability on the fitted dose curve at most 10% of control; inactive = the rest
Excerpt: RAS pathway inhibitors in Combinations in Complex Spheroids
A high-throughput screen of multi-cell type tumor spheroids was designed to identify active combinations of RAS pathway inhibitors and targeted small molecules. Complex spheroids include a stromal component modeled by human endothelial cells (HUVEC) and fibroblasts modeled by human mesenchymal stem cells (MSCs). The concentration ranges selected for each drug and investigational agent were based upon clinically achievable concentrations if the clinical Cmax of the agent was known.
Compounds. The drugs and investigational agents: abemaciclib (NSC768073), cobimetinib (NSC768068), divarasib (GDC6063, NSC841802), docetaxel (NSC628503), GDC-1971 (RLY-1971, NSC841576), gemcitabine (NSC613327), inavolisib (NSC800729), ipatasertib (NSC767898), KB-0742 (NSC834161), MRTX-1133 (NSC836407), osimertinib (NSC779217), RMC-4630 (NSC839698), RMC-6236 (NSC851965), RMC-6291 (NSC852671), Ro-3306 (NSC812927), sapanisertib (NSC764658), SN-38 (NSC673596), staurosporine (NSC755774), SY5609 (NSC837396), and tovorafenib (DAY101, NSC766906), were obtained from the National Cancer Institute (NCI) Developmental Therapeutics Program Chemical Repository. The FDA-approved anticancer drug set is available from the NCI Developmental Therapeutics Program. […] The stock solutions were prepared in dimethyl sulfoxide (DMSO, Sigma-Aldrich, St. Louis, MO, cat. D2650) at 800-fold the tested concentration and stored at -70 degrees C prior to their use. All drugs and investigational agents were tested over a range starting from a high concentration at or near the clinical Cmax and decreasing in half-log increments. If the clinical Cmax for an agent had not been determined, the highest concentration tested was 10 microM.
Cell Culture. All cells were maintained in an incubator at 37 degrees C and 5% CO2 with 95% humidity. The PDC lines were cultured according to standard operating procedures established by the NCI PDMR. All PDCs were thawed and cultured in Matrigel-coated flasks prepared with a working solution of 1X Ham's F-12 nutrient mix, without supplementation (Invitrogen, Waltham, MA, cat. 11765054), 100 U/mL penicillin-streptomycin (Invitrogen, cat. 15140122), and 2.5% Matrigel (Corning Inc., Corning, NY, cat. 354248) for the first three passages. The 362531-283-R-J2-PDC and 782815-120-R-J1-PDC lines were cultured in 6C/Colon 1B media, which includes advanced DMEM/F-12 (Thermo Fisher Scientific, cat. 12634028), 10 mM HEPES (Thermo Fisher Scientific, cat. 15630080), 1X GlutaMAX supplement (Thermo Fisher Scientific, cat. 35050061), 0.1 mg/mL primocin (InvivoGen, San Diego, CA, cat. ant-pm-2), 10% defined fetal bovine serum, heat inactivated (HyClone Laboratories Inc., Logan, UT, cat. SH30070.03HI), 50% L-WRN conditioned media (ATCC, cat. CRL-3276), 1.25 mM N-Acetyl-L-cysteine (Sigma-Aldrich, cat. A9165), 10 mM nicotinamide (Sigma-Aldrich, cat. N0636), 1X B-27 supplement (Thermo Fisher Scientific, cat. 17504044), 1X N-2 supplement (Thermo Fisher Scientific, cat. 17502048), 50 ng/mL human EGF (Thermo Fisher Scientific, cat. PHG0311), and 10 microM Y-27632 dihydrochloride (Tocris Bioscience, cat. 1254). The K12877-001-R-J1-PDC line was cultured in 6I media, which includes all 6C/Colon 1B media plus 10 ng/mL human FGF-10 (PeproTech, cat. 100-26), 1 ng/mL human FGF-2 (PeproTech, cat. 100-18B), 1 µM prostaglandin E2 (Tocris Bioscience, cat. 2296), […] hydrocortisone (Sigma-Aldrich, cat. H4001), and […] bovine insulin (Sigma-Aldrich, cat. I6634). The K86415-001-R-J1-PDC line was cultured in 6D media, which includes all 6C/Colon 1B media components minus the L-WRN conditioned media. The 485176-168-R4-J1-PDC was cultured in PANC media, which includes all 6C/Colon 1B media plus 100 ng/mL human FGF-10 (PeproTech, cat. 100-26), 500 nM SB-431542 (Selleckchem, cat. S1067), and 10 nM gastrin (Tocris Bioscience, cat. 3006). […]

[1] = second compound 0.0316 µM, first compound 0.0316 µM
[2] = second compound 0.0316 µM, first compound 0.1 µM
[3] = second compound 0.0316 µM, first compound 0.316 µM
[4] = second compound 0.0316 µM, first compound 1 µM
[5] = second compound 0.0316 µM, first compound 3.16 µM
[6] = second compound 0.0316 µM, first compound 10 µM
[7] = second compound 0.1 µM, first compound 0.0316 µM
[8] = second compound 0.1 µM, first compound 0.1 µM
[9] = second compound 0.1 µM, first compound 0.316 µM
[10] = second compound 0.1 µM, first compound 1 µM
[11] = second compound 0.1 µM, first compound 3.16 µM
[12] = second compound 0.1 µM, first compound 10 µM
[13] = second compound 0.316 µM, first compound 0.0316 µM
[14] = second compound 0.316 µM, first compound 0.1 µM
[15] = second compound 0.316 µM, first compound 0.316 µM
[16] = second compound 0.316 µM, first compound 1 µM
[17] = second compound 0.316 µM, first compound 3.16 µM
[18] = second compound 0.316 µM, first compound 10 µM
[19] = second compound 1 µM, first compound 0.0316 µM
[20] = second compound 1 µM, first compound 0.1 µM
[21] = second compound 1 µM, first compound 0.316 µM
[22] = second compound 1 µM, first compound 1 µM
[23] = second compound 1 µM, first compound 3.16 µM
[24] = second compound 1 µM, first compound 10 µM
[25] = second compound 3.16 µM, first compound 0.0316 µM
[26] = second compound 3.16 µM, first compound 0.1 µM
[27] = second compound 3.16 µM, first compound 0.316 µM
[28] = second compound 3.16 µM, first compound 1 µM
[29] = second compound 3.16 µM, first compound 3.16 µM
[30] = second compound 3.16 µM, first compound 10 µM
[31] = second compound 10 µM, first compound 0.0316 µM
[32] = second compound 10 µM, first compound 0.1 µM
[33] = second compound 10 µM, first compound 0.316 µM
[34] = second compound 10 µM, first compound 1 µM
[35] = second compound 10 µM, first compound 3.16 µM
[36] = second compound 10 µM, first compound 10 µM
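Also: spheroids exposed to agents for one week before readout.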
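For viability, T/C in this document: percent viability relative to DMSO vehicle control wells as 100%.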

CCC(CC)c1cc(NC2CCC(N)C2)n2nccc2n1 (stereo unspecified) + C#Cc1c(F)ccc2cc(O)cc(-c3ncc4c(N5CC6CCC(C5)N6)nc(OCC56CCCN5CC(F)C6)nc4c3F)c12
1.88 µM: IC50 (second compound 0.316 µM) | IC50 (second compound 1 µM)
1.81 µM: IC50 (second compound 10 µM)
1.87 µM: IC50 (second compound 0.1 µM)
1.8 µM: IC50 (second compound 0.0316 µM)
active: viability, T/C [5] 2.83% | viability, T/C [6] 2.78% | viability, T/C [11] 2.38% | viability, T/C [12] 2.61% | viability, T/C [17] 2.97% | viability, T/C [18] 2.55% | viability, T/C [23] 2.97% | viability, T/C [24] 2.86% | viability, T/C [29] 2.6% | viability, T/C [30] 2.57% | viability, T/C [35] 0.62% | viability, T/C [36] 0.86%
inactive: viability, T/C [1] 99.4% | viability, T/C [2] 87.7% | viability, T/C [3] 97.2% | viability, T/C [4] 111% | viability, T/C [7] 91.1% | viability, T/C [8] 97.8% | viability, T/C [9] 106% | viability, T/C [10] 133% | viability, T/C [13] 93% | viability, T/C [14] 95.1% | viability, T/C [15] 106% | viability, T/C [16] 137% | viability, T/C [19] 90.4% | viability, T/C [20] 93.1% | viability, T/C [21] 116% | viability, T/C [22] 127% | viability, T/C [25] 100% | viability, T/C [26] 94.9% | viability, T/C [27] 116% | viability, T/C [28] 126% | viability, T/C [31] 86.1% | viability, T/C [32] 88.7% | viability, T/C [33] 111% | viability, T/C [34] 122%
1.9 µM: IC50 (second compound 3.16 µM)

Cc1nc(N2CCC3(CC2)COC(C)C3N)c(CO)nc1Sc1ccnc(N)c1Cl (stereo unspecified) + C#Cc1c(F)ccc2cc(O)cc(-c3ncc4c(N5CC6CCC(C5)N6)nc(OCC56CCCN5CC(F)C6)nc4c3F)c12
> 10 µM: IC50 (second compound 0.0316 µM) | IC50 (second compound 0.1 µM) | IC50 (second compound 0.316 µM) | IC50 (second compound 1 µM) | IC50 (second compound 3.16 µM) | IC50 (second compound 10 µM)
inactive: viability, T/C [1] 107% | viability, T/C [2] 92.5% | viability, T/C [3] 111% | viability, T/C [4] 80.5% | viability, T/C [5] 102% | viability, T/C [6] 92% | viability, T/C [7] 107% | viability, T/C [8] 94.7% | viability, T/C [9] 103% | viability, T/C [10] 92.6% | viability, T/C [11] 95.1% | viability, T/C [12] 90.9% | viability, T/C [13] 91% | viability, T/C [14] 114% | viability, T/C [15] 115% | viability, T/C [16] 115% | viability, T/C [17] 93.5% | viability, T/C [18] 91.5% | viability, T/C [19] 93.1% | viability, T/C [20] 112% | viability, T/C [21] 113% | viability, T/C [22] 107% | viability, T/C [23] 97.8% | viability, T/C [24] 87.3% | viability, T/C [25] 104% | viability, T/C [26] 104% | viability, T/C [27] 113% | viability, T/C [28] 88.8% | viability, T/C [29] 88.2% | viability, T/C [30] 98% | viability, T/C [31] 91.8% | viability, T/C [32] 97.1% | viability, T/C [33] 100% | viability, T/C [34] 89.8% | viability, T/C [35] 95.2% | viability, T/C [36] 85.5%

NC1c2ccccc2OC12CCN(c1cnc3c(N4CCCc5ncccc54)n[nH]c3n1)CC2 (stereo unspecified) + C#Cc1c(F)ccc2cc(O)cc(-c3ncc4c(N5CC6CCC(C5)N6)nc(OCC56CCCN5CC(F)C6)nc4c3F)c12
> 10 µM: IC50 (second compound 0.0316 µM) | IC50 (second compound 0.1 µM) | IC50 (second compound 0.316 µM) | IC50 (second compound 1 µM) | IC50 (second compound 3.16 µM) | IC50 (second compound 10 µM)
inactive: viability, T/C [1] 118% | viability, T/C [2] 88.8% | viability, T/C [3] 98.4% | viability, T/C [4] 97.3% | viability, T/C [5] 108% | viability, T/C [6] 92.7% | viability, T/C [7] 106% | viability, T/C [8] 98.1% | viability, T/C [9] 95.5% | viability, T/C [10] 108% | viability, T/C [11] 99.7% | viability, T/C [12] 109% | viability, T/C [13] 100% | viability, T/C [14] 105% | viability, T/C [15] 95.5% | viability, T/C [16] 113% | viability, T/C [17] 108% | viability, T/C [18] 113% | viability, T/C [19] 100% | viability, T/C [20] 103% | viability, T/C [21] 118% | viability, T/C [22] 109% | viability, T/C [23] 95.8% | viability, T/C [24] 118% | viability, T/C [25] 101% | viability, T/C [26] 92.2% | viability, T/C [27] 109% | viability, T/C [28] 101% | viability, T/C [29] 91.1% | viability, T/C [30] 99.7% | viability, T/C [31] 105% | viability, T/C [32] 90.1% | viability, T/C [33] 120% | viability, T/C [34] 98.8% | viability, T/C [35] 108% | viability, T/C [36] 115%
